The text below walks through data of patent US20240368120A1 (Terns Pharmaceuticals, Inc., priority 2023, published 2024).

Broadly, the AUC is the area under the concentration-time curve, a measure of exposure. A lower AUC goes with low exposure. One may read the Cmax as the peak of the concentration-time curve. For orientation: bioavailability means the share of a dose that reaches the circulation, judged against a reference dose that is usually intravenous. A high value points to good availability. By CLint scaled is commonly meant the capacity of the preparation to metabolise the compound, expressed as a volume cleared per time. A higher CLint scaled goes with faster metabolism.

Data set [1] can be described thus: Rat pharmacokinetics, oral dosing. In kind it is in vivo, Sprague-Dawley rats. The following applies: male, Sprague-Dawley, plasma; for half-life: read-out: Rat T1/2.
The nature of data set [2]: Rat pharmacokinetics, intravenous dosing. The data set is classed as in vivo, Sprague-Dawley rats. To be noted: male, Sprague-Dawley, IV bolus dosing at 3.0 mg/kg, plasma. How it is done:
Intravenous dosing: Compounds were formulated at 1.0 mg/mL in a solution comprising 5% polyethylene glycol 400 and 95% (12% (w/v) sulfobutyl-β-cyclodextrin in water) (v/v). Formulated compounds were sterile filtered through a 0.22 micron filter before dosing. Compounds were administered to male, 7-11-week-old Sprague-Dawley rats by jugular vein cannula infusion over 30 minutes at a dose of 1 mg/kg. Oral dosing: Compounds were formulated at 1.0 mg/mL in a solution comprising 5% polyethylene glycol 400 and 95% (12% (w/v) sulfobutyl-β-cyclodextrin in water) (v/v). Formulated compounds were administered to male, 7-11 week old Sprague-Dawley rats by oral gavage at a dose of 10 mg/kg or 3 mg/kg.
Sample collection: Blood collections of about 0.2 mL per time point were performed from jugular vein or other suitable site of each animal, into pre-chilled commercial EDTA-K2 tubes and placed on wet ice until centrifugation. Blood samples were processed for plasma by centrifugation at approximately 4° C., 3,200 g for 10 min. Plasma was collected and transferred into pre-labeled 96 well plate or polypropylene tubes, quick frozen over dry ice and kept at −60° C. or lower until
Data analysis: Plasma concentration versus time data was plotted in graph and analyzed by non-compartmental approaches using the Phoenix WinNonlin 6.3 software program. Related PK parameters were calculated according to dosing route, e.g., CL, Vdss and C0 for intravenous administration, Cmax, Tmax or % F for extravascular administration, and T1/2, AUC(0-t), AUC(0-inf), MRT(0-t), MRT(0-inf) for all routes.

Data set [3] in a line: Metabolic stability in human hepatocytes. The data set is classed as in vitro ADME. The following applies: cryopreserved hepatocytes, 1 μM, 1×10^6 cells/mL, 0-240 min; for half-life at 1 μM: read-out: Human t1/2. How it is done: (§1) Test compounds were incubated in rat and human hepatocytes and stability was assessed from the substrate […] approach. Test compounds were dissolved in dimethyl sulfoxide (DMSO) to create a 10 mM Stock, and then further diluted to create a 1000× Working Stock of 1 mM with DMSO in 96-well plates for test compounds and the positive control (midazolam). Vials containing cryopreserved hepatocytes were removed from the liquid nitrogen tank and immediately immersed in a 37° C. water bath. The vials were shaken gently until the contents had thawed and were then immediately emptied into 48 mL of pre-warmed HT Medium in a 50 mL conical tube. Cells remaining in the vial were resuspended with 1.0 mL of pre-warmed HT Medium and added to the conical tube. The tube was capped and then gently inverted several times to resuspend the hepatocytes. The cell suspension was centrifuged at 50×g at room temperature for 5 minutes and the supernatant discarded. The cell pellet was loosened by gently swirling the centrifuge tube and was re-suspended in 4 mL of warm Dulbecco's Modified Eagle medium (DMEM). Cell density was determined by a cell counter by Nexcelom, and DMEM medium was added to obtain a target density of 1×10^6 cells/mL. The assay was carried out in 96-well microtiter plates. Test Compounds were incubated at 1 μM with 1×10^6 cells/mL hepatocytes in DMEM for 0, 30, 60, 120 and 240 minutes. The incubation was carried out with gentle shaking at 37° C. under a humid atmosphere of 95% air/5% CO2. The volume of the incubation mixture was 37 μL with a final 0.1% DMSO. At each of the time points, the incubation was stopped by adding 150 μL quenching solution (100% acetonitrile, 0.1% formic acid containing bucetin as an internal standard for positive ESI mode). Subsequently, the mixtures were vortexed for 20 min and centrifuged at 4,000 RPM at 10° C. The supernatant (80 μL) was transferred to a clean 96-well plate and analyzed by LC-MS/MS. Midazolam at 1 μM with a final 0.1% DMSO was included as a positive control to verify assay performance. The percent parent remaining, intrinsic and predicted hepatic clearance and t1/2 were calculated. All samples were analyzed by LC-MS/MS using an AB Sciex API 4000 instrument, coupled to a Shimadzu LC-20AD LC Pump system. Separation was achieved using a Waters Atlantis T3 dC18 reverse phase HPLC column (20 mm×2.1 mm) at a flow rate of 0.5 mL/min. The mobile phase consisted of 0.1% formic acid in water (solvent A) and 0.1% formic acid in 100% acetonitrile (solvent B). Elution conditions are detailed below.
(§2) The ion optics of each test compound were optimized for their declustering potential (DP), […] (CE), collision-cell exit potential (CXP) and used in a selected ion monitoring experiment in the positive ion mode. The peak area ratio of each test compound to internal standard was then evaluated for stability. The extent of metabolism was calculated based on the disappearance of the test compound, compared to its initial concentration. The initial rates of clearance of the test compound were calculated using the linear regression plot of semi-log % remaining of the compound versus time. The elimination rate constant (k) of the linear regression plot was then used to determine t1/2 and the intrinsic clearance (CLint) using the following formula, where Chepatocyte (million cells/mL) is the cell density of the incubation:
(§3) The predicted hepatic clearance (CLhep) was calculated using the well stirred method with the following formula with CLint (in vivo) normalized based on liver weight: […]
(§4) The relevant physiological parameters of liver weight, blood flow, and hepatocellularity for various species are listed below: […]

The subject of data set [4] is human hepatocytes. As to the kind of experiment: Metabolic stability in human hepatocytes. In kind it is in vitro ADME. The following applies: predicted hepatic clearance, well stirred method. How it is done:
as §1, §2, §3, §4

`COc1cc(C(=O)O)cc2c1nc(CN1CCC(c3cccc(OCc4ccc(C#N)cc4F)n3)CC1)n2Cc1cncs1` [Compound 1, 2-((4-(6-((4-Cyano-2-fluorobenzyl)oxy)pyridin-2-yl)piperidin-1-yl)methyl)-4-methoxy-1-(thiazol-5-ylmethyl)-1H-benzo[d]imidazole-6-carboxylic acid]: in data set [1] (oral dosing at 10 mg/kg), the AUC is 500 to 2500 ng·h/mL, the Cmax lay in the range of 500 to 1000 ng/mL, the half-life lay within 1.5 to 2.5 h and the bioavailability lay in the range of 25 to 50%. Besides, in data set [2], the AUC was below 500 ng·h/mL and the C0 is above 2000 ng/mL. For the same molecule, the half-life in data set [2] (read-out: Rat T1/2) was below 1.5 h. Further, in data set [3], the intrinsic metabolic clearance (CLint scaled) at 1 μM came to 14.2 ± 0.97 mL/min/kg and the half-life at 1 μM was 2.83 ± 0.193 h. In addition, in data set [4], the “Human Clhep predicted” value is 8.42 ± 0.92 mL/min/kg.

As to `COc1cc(C(=O)O)cc2c1nc(CN1CCC(c3cccc(OCc4ccc(C#N)cc4F)n3)CC1)n2C[C@@H]1CCO1` [Compound 8, (S)-2-((4-(6-((4-Cyano-2-fluorobenzyl)oxy)pyridin-2-yl)piperidin-1-yl)methyl)-4-methoxy-1-(oxetan-2-ylmethyl)-1H-benzo[d]imidazole-6-carboxylic acid], in data set [1] (oral dosing at 3 mg/kg), the AUC was below 500 ng·h/mL, the Cmax is below 500 ng/mL, the half-life was at least 2.5 h and the bioavailability was below 25%. In data set [3], the intrinsic metabolic clearance (CLint scaled) at 1 μM is 6.18 ± 0.7 mL/min/kg and the half-life at 1 μM was found to be 0.0743 ± 0.0112 h. Also, the “Human Clhep predicted” value in data set [4] is recorded as 4.76 ± 0.68 mL/min/kg.
